Assays:
[1] = target: T1, prostaglandin cyclooxygenase (Ovis aries, UniProt P05979); assay: in vitro effect on prostaglandin cyclooxygenase (14C-arachidonic acid to PGE2); type: biochemical, sheep; conditions: read-out: IC50 for inhibition of cyclooxygenase
T1 construct: Lyophilized sheep seminal vesicle microsomes are utilized as the prostaglandin-synthesizing enzyme preparation; from tissue; host or cells: sheep seminal vesicle microsomes (lyophilized)
T1 sequence (P05979 25-600): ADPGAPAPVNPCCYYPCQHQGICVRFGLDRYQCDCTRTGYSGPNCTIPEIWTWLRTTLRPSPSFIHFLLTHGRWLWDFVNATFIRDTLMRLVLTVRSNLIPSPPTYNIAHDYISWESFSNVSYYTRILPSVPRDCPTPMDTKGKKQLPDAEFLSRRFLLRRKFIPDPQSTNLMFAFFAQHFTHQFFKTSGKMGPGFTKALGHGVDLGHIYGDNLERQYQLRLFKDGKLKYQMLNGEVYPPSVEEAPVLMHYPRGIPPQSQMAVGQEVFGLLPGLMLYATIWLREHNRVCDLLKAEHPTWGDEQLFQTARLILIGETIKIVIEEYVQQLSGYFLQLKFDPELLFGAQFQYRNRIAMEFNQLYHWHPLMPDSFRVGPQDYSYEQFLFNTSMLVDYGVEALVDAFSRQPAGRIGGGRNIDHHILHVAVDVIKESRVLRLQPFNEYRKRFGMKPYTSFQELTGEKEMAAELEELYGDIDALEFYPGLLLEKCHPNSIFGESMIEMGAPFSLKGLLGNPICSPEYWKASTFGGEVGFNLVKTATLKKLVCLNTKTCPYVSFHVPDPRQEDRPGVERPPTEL
Experimental: The in-vitro effect on prostaglandin cyclooxygenase is measured by a modification of the method of Takeguchi et al. described in Biochemistry 10, 2372 (1971); the testing procedure is as follows: Lyophilized sheep seminal vesicle microsomes are utilized as the prostaglandin-synthesizing enzyme preparation. The conversion of ^14 C-arachidonic acid to PGE2 is measured. Test compounds (dissolved in buffer, or if necessary, in a small amount of ethanol) are added to the incubation mixture. The prostaglandins are extracted and separated by thin-layer chromatography; the plates are scanned, the radioactive zones corresponding to PGE2 are transferred to liquid scintillation vials and counted for radioactivity. IC50 values for inhibition are determined graphically as the concentration of test compound causing a 50% reduction in the amount of PGE2 synthesized.

thromboxane synthetase = target: T2, thromboxane synthetase (Homo sapiens, UniProt P24557); assay: in vitro inhibition of thromboxane synthetase (14C-arachidonic acid, TxB2/PGF2α+β ratio); type: biochemical; conditions: 30 minutes incubation
T2 construct: crude microsomal preparation of thromboxane synthetase from lysed human platelets; from tissue; host or cells: human platelets (lysed, crude microsomal preparation)
T2 sequence (P24557 1-533): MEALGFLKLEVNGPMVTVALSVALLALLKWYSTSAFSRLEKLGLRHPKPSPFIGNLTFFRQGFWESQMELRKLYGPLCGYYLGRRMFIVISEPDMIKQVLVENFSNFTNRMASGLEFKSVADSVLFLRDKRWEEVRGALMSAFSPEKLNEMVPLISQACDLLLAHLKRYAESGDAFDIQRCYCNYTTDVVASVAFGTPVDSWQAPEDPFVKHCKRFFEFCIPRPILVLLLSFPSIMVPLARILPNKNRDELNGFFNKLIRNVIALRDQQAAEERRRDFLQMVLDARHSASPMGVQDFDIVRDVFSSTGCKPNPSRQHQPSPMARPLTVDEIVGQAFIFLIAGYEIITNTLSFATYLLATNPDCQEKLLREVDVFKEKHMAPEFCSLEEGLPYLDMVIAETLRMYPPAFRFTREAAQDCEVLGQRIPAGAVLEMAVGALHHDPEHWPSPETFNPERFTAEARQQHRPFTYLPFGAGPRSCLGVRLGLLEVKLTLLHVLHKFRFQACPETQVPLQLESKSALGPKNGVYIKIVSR
Experimental: Res. Comm. 74, 1432 (1977); the testing procedure is as follows:
^14 C-Arachiodonic acid is incubated with an exzyme consisting of solubilized and partially purified prostaglandin cyclo-oxygenase from sheep seminal vesicles and a crude microsomal preparation of thromboxane synthetase from lysed human platelets. The test compound (dissolved in buffer, or if necessary, in a small amount of ethanol) is added to the incubation medium. At the end of the incubation period (30 minutes), Prostaglandin E2 (PGE2) is reduced to a mixture of Prostaglandin F2 α and F2 β (PGF2α+β) by addition of sodium borohydride. The radioactive products and excess substrate are extracted into ethyl acetate; the extract is evaporated to dryness; the residue is dissolved in acetone, spotted on thin-layer plates and chromatographed in the solvent system toluene: acetone: glacial acetic acid (100 volumes: 100 volumes: 3 volumes). The radioactive zones are located; those corresponding to Thromboxane B2 (TxB2) and PGF2 α+β are transferred to liquid scintillation vials and counted. The ratio of counts for TxB2 /PGF2 α+β is calculated for each concentration of test compound and IC50 values are determined graphically as the concentration of test compound at which the ratio of T×B2 /[…] is reduced to 50% of the control value.

thrombocytopenia = assay: inhibition of variously induced thrombocytopenia; conditions: in vivo
[2] = target: T3, prostacyclin (PGI2) synthetase (Bos taurus, UniProt Q29626); assay: in vitro effect on prostacyclin (PGI2) synthetase (6-keto-PGF1α/PGE2 ratio); type: biochemical, bovine; conditions: pH 7.5, 30 minutes at 37° C., read-out: IC50 for inhibition of prostacyclin synthetase
T3 construct: crude PGI2 synthetase in the form of a microsomal fraction of bovine aorta; from tissue; host or cells: bovine aorta (microsomal fraction)
T3 sequence (Q29626 1-500): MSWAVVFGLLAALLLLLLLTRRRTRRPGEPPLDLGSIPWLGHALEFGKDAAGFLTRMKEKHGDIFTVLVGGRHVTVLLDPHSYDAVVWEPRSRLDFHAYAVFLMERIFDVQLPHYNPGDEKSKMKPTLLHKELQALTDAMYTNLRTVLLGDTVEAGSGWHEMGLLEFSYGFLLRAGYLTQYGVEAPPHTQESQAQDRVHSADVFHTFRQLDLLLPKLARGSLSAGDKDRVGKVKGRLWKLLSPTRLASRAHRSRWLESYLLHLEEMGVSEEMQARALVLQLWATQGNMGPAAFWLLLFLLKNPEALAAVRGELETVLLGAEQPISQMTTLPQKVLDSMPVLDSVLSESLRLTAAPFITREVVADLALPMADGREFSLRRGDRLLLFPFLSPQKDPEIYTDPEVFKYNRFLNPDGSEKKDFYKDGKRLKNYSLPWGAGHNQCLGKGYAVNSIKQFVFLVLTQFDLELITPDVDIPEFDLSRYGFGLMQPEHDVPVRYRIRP
Experimental: The in-vitro effect on prostacyclin (PGI2) synthetase is measured analogous to the method of Sun et al., Prostaglandins 14, 1055 (1977);
The testing procedure is as follows:
^14 C-Arachiodonic acid is incubated with an enzyme mixture consisting of solubilized and partially purified prostaglandin cyclo-oxygenase from sheep seminal vesicles and crude PGI2 synthetase in the form of a microsomal fraction of bovine aorta.
Test compound (dissolved in buffer, or if necessary, in a small amount of ethanol) is placed in the incubation medium. The reaction mixture is incubated in 100 mM Tris HCl (pH 7.5) for 30 minutes at 37° C., acidified to pH 3 and extracted into ethyl acetate. The extract is evaporated to dryness; the residue is dissolved in acetone, spotted on thin-layer plates and chromatographed in a solvent system described by Sun et al.. The radioactive zones are located with a scanner; those corresponding to 6-keto-PGF1 α(a stable end product of prostacyclin biotransformation) and PGE2 are transferred to liquid scintillation vials and counted. The ratio of counts for 6-keto-PGF1 α/PGE2 is calculated for each concentration of test compound used. IC50 values for inhibition are determined graphically as the concentration of test compound at which the ratio of 6-keto-PGF1 α/PGE2 is reduced to 50% of the control value.

platelet aggregation = assay: inhibition of variously induced platelet aggregation; type: cell-based
bleeding time = assay: prolongation of bleeding time in the rat; type: in vivo; conditions: oral, about 10 mg/kg
Text: Experimentally, prolongation of bleeding time in the rat is indicative of a beneficial antithrombotic effect.

prostacyclin = assay: plasma level of prostacyclin in vivo in rats (ionophore A23187, radioimmunoassay of 6-keto-PGF1α); conditions: rat, oral dose 0.10 mg/kg
Experimental: (§1) The inhibition of the synthesis and the reduction of plasma levels of thromboxane is determined in vivo on administration to rats in the following manner (as adapted from the procedures described by Tai et al. in Anal. Biochem. 87:343, 1978 and by Salmon in Prostaglandins 15:383, 1978):
(§2) Rats are dosed with vehicle or test drug and injected intravenously with ionophore A23187 (0.5 mg/kg) two hours later. Blood is collected for analysis 2 minutes after the inonophore injection. A single aliquot of each plasma sample is assayed for thromboxane B2 and another aliquot for 6-keto-PGF1 α, the stable metabolites of thromboxane A2 and prostacyclin (PGI2) respectively, by radioimmunoassay.

thromboxane B2 = assay: reduction of plasma levels of thromboxane in vivo in rats (ionophore A23187, radioimmunoassay of thromboxane B2); conditions: rat, oral dose 0.10 mg/kg
Experimental: as §1, §2

`Cn1c(-c2cccnc2)c(CCCCCC(=O)O)c2ccccc21` [3-(5-carboxypentyl)-1-methyl-2-(3-pyridyl)indole] was tested, and the IC50 [1] was ~100000 nM, the IC50 (thromboxane synthetase) was 2.2 nM and the “inhibition of variously induced thrombocytopenia” value (thrombocytopenia) was “inhibits”. For the same compound, the IC50 [2] was ~100000 nM and the “inhibition of variously induced platelet aggregation” value (platelet aggregation) was “inhibits”.

In the case of `O=C(O)CCCCCc1c(-c2cccnc2)[nH]c2ccccc12` [3-(5-carboxypentyl)-2-(3-pyridyl)indole], the “prolongation of bleeding time” value (bleeding time) is reported as “prolongs bleeding time” and the IC50 (thromboxane synthetase) is reported as ~1.7 nM.

With `Cn1c(-c2cccnc2)c(CCCCCC(=O)O)c2cc(Cl)ccc21` [3-(5-carboxypentyl)-5-chloro-1-methyl-2-(3-pyridyl)indole] the “increase in the plasma level of prostacyclin” value (prostacyclin) was “approximately 8 fold” and the “decrease of plasma concentration of thromboxane B2” value (thromboxane B2) was “over 50%”.

`O=C(O)CCCCCc1c(-c2cccnc2)[nH]c2ccc(Cl)cc12` [3-(5-carboxypentyl)-5-chloro-2-(3-pyridyl)indole] gave an IC50 (thromboxane synthetase) of ~2 nM.
